Assay results taken from ChEMBL document CHEMBL1143449, “Exploring the connection unit in the HDAC inhibitor pharmacophore model: novel uracil-based hydroxamates” (Bioorg Med Chem Lett, 2005).

Experiments:
[1] = Inhibitory concentration against Histone deacetylase 1A in maize; type: functional, Zea mays
[2] = Inhibitory concentration against Histone deacetylase 1B in maize; type: functional, Zea mays
Histone deacetylase HD2 = target: T1, Histone deacetylase HD2 (Zea mays, UniProt Q94F81); assay: Inhibitory concentration against Histone deacetylase 2 in maize; type: functional
T1 sequence (Q94F81 whole entry): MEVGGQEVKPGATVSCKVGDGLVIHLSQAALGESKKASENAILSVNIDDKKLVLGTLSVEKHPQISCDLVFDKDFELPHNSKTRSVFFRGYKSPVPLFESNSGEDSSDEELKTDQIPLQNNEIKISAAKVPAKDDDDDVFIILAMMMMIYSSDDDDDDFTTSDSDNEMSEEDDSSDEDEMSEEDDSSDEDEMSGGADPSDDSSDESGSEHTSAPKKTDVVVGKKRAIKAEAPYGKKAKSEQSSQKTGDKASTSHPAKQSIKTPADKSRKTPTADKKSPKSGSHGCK

Zea mays [3] = assay: Selectivity for class I (HD1B) against class II (HD1A) histone deacetylases; type: functional
Zea mays [4] = assay: Selectivity of for class II (HD1A) against class I (HD1B) histone deacetylases; type: functional

| IC50 [1] [nM] | IC50 [2] [nM] | IC50 (Histone deacetylase HD2) [nM] | SMILES | Selectivity index (Zea mays [3]) | Selectivity index (Zea mays [4]) |
| --- | --- | --- | --- | --- | --- |
| 126 | 41 | 38 | O=C(CCSc1nc(O)cc(Cc2ccccc2)n1)NO | 3.1 | – |
| 38200 | 30200 | 31800 | O=C(CC1CSc2nc(Cc3ccccc3)cc(=O)n21)NO (stereo not drawn) | – | – |
| 885 | 251 | – | O=C(CCCSc1nc(O)cc(Cc2ccccc2)n1)NO | 3.5 | – |
| – | 28 | – | O=C(CCCCCCC(=O)Nc1ccccc1)NO [VORINOSTAT] | – | – |
| 132 | 239 | 213 | O=C(CCCCCSc1nccc(O)n1)NO | – | – |
| 13300 | 7400 | 9000 | O=C(/C=C/Sc1nc(O)cc(Cc2ccccc2)n1)NO | – | – |
| – | – | 229 | O=C(CCCSc1nc(Cc2ccccc2)cc(=O)[nH]1)NO | – | – |
| 181 | 130 | 125 | O=C(CCCCSc1nc(O)cc(Cc2ccccc2)n1)NO | – | – |
| 0.8 | 0.4 | 7 | O=C(O)[C@@H]1C[C@]2(C(=O)O)C=C[C@@H](O)[C@@H](C2)O1 | 2 | – |

Continued, molecule first:

| SMILES | IC50 [1] [nM] | IC50 [2] [nM] | IC50 (Histone deacetylase HD2) [nM] | Selectivity index (Zea mays [3]) | Selectivity index (Zea mays [4]) |
| --- | --- | --- | --- | --- | --- |
| O=C(CCCCCSc1nc(Cc2ccccc2)cc(=O)[nH]1)NO | 29 | – | 18 | – | – |
| CCCc1cc(O)nc(SCCCCCC(=O)NO)n1 | 66 | 116 | 135 | – | – |
| CCc1ccccc1-c1cc(O)nc(SCCCCCC(=O)NO)n1 | 25 | 48 | 35 | – | 2 |
| O=C(CCCCCSc1nc(-c2ccccc2)cc(=O)[nH]1)NO | 6 | 19 | 12 | – | 3.2 |
| Cc1cc(O)nc(SCCCCCC(=O)NO)n1 | 78 | 112 | 110 | – | – |
| O=C(CCCCCCSc1nc(O)cc(Cc2ccccc2)n1)NO | 53 | 76 | 37 | – | – |
| O=C(CCCCCCCSc1nc(O)cc(Cc2ccccc2)n1)NO | 64 | 193 | 61 | – | 3 |
